Values of other authors as cited in US20250381145A1, “COMBINATION OF SGLT2 INHIBITORS AND MINERALCORTICOID RECEPTOR MODULATORS FOR USE IN TREATMENT OF CARDIORENAL DISEASES” (ASTRAZENECA AB, priority 2022, published 2025).

solubility (BCS characterisation)	SMILES
low	CNC(=O)C[C@H]1COc2cc(F)ccc2N1C(=O)c1ccc2c(c1)NC(=O)CO2 [AZD9977, balcinrenone]
high	CCOc1ccc(Cc2cc([C@@H]3O[C@H](CO)[C@@H](O)[C@H](O)[C@H]3O)ccc2Cl)cc1 [dapagliflozin]
